Results: PubChem BioAssay (NCI)
Values joined by “and” are separate entries in the source; they are usually repeats but may differ in a detail not shown here. Identical values can stand only once.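 48-hour exposure; five concentrations; linearly interpolated endpoints. The concentration for 50% growth inhibition is given as GI50. TGI: total growth inhibition.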

Experiments:
Assay in all cases: NCI anticancer screen, dose series, 48 h
786-0 renal = system: 786-0 renal
RPMI-8226 leukemia = system: RPMI-8226 leukemia
SK-MEL-5 melanoma = system: SK-MEL-5 melanoma
OVCAR-4 ovarian = system: OVCAR-4 ovarian
HCC-2998 colon = system: HCC-2998 colon
PC-3 prostate = system: PC-3 prostate
SK-MEL-2 melanoma = system: SK-MEL-2 melanoma
HOP-92 NSCLC = system: HOP-92 NSCLC
MDA-MB-435 = system: MDA-MB-435
SN12C renal = system: SN12C renal

| SMILES | GI50 (786-0 renal) | TGI (786-0 renal) [µM] | GI50 (RPMI-8226 leukemia) [nM] | TGI (RPMI-8226 leukemia) [µM] | GI50 (SK-MEL-5 melanoma) [nM] | TGI (SK-MEL-5 melanoma) | GI50 (OVCAR-4 ovarian) [nM] | TGI (OVCAR-4 ovarian) [µM] | GI50 (HCC-2998 colon) | TGI (HCC-2998 colon) [µM] | GI50 (PC-3 prostate) [nM] | TGI (PC-3 prostate) [µM] | GI50 (SK-MEL-2 melanoma) [nM] | TGI (SK-MEL-2 melanoma) [µM] | GI50 (HOP-92 NSCLC) | TGI (HOP-92 NSCLC) [µM] | GI50 (MDA-MB-435) [nM] | TGI (MDA-MB-435) | GI50 (SN12C renal) | TGI (SN12C renal) [µM] |
| --- | --- | --- | --- | --- | --- | --- | --- | --- | --- | --- | --- | --- | --- | --- | --- | --- | --- | --- | --- | --- |
| COc1cccc2c1c1nc3cc(C)c(C)cc3nc1n2CCN(C)C | 1350 nM | 5.53 | 1160 | 4.29 | 1640 | 3.01 µM | 2060 | 8.6 | 1420 nM | 3.65 | 1730 | 11.6 | 1850 | 4.39 | 1130 nM | 6.73 | 1830 | 4140 nM | 1660 nM | 11.2 |
| CNC1C(O)CC(OC2C/C=C(\C)C/C(C)=C/C=C/CCC(C)CNC(=O)/C=C/C=C/C2C)OC1C (stereo not given) |  | 0.294 |  | 0.548 |  | 1.22 µM |  | 0.668 |  | 1.42 |  | 2.07 |  | 2.82 |  | 2.11 |  | 820 nM |  | 1.94 |
| Cn1cc(C2=C(c3c4n(c5ccccc35)CCC(CN)CC4)C(=O)NC2=O)c2ccccc21 (stereo not given) | 4580 nM | 8.55 | 4410 | 10.8 | 3990 | 7.59 µM | 1960 | 7.51 | 4430 nM | 8.46 | 3390 | 7.95 | 4020 | 8.25 | 2920 nM | 7.69 | 3350 | 6760 nM | 3870 nM | 8.14 |
| Clc1ccc(CO/N=C(\Cn2ccnc2)c2ccc(Cl)cc2Cl)c(Cl)c1 | 1660 nM | 3.14 | 1450 | 4.52 | 1630 | 3.03 µM | 1360 | 2.67 | 1730 nM | 3.42 | 1270 | 2.72 | 2060 | 3.92 | 1150 nM | 2.53 | 1660 | 3190 nM | 1440 nM | 2.93 |
| COC(=O)Nc1nc2ccc(Oc3ccc(NC(=O)Nc4cccc(Cl)c4)cc3)cc2[nH]1 | 1870 nM | 8.28 | 1640 | > 25 | 492 | 3.66 µM | 3050 | 8.19 | 7980 nM | > 25 | 1000 | 7.1 | 1070 | 8.06 | 853 nM | 5.47 | 75.5 | 315 nM | 2060 nM | 11.7 |
| COC(=O)[C@@H](C)C[C@H](Cc1ccccc1)NC(=O)c1csc([C@@H](C[C@H](C(C)C)N(C)C(=O)[C@@H](NC(=O)[C@H]2CCCCN2C)C(C)C)OC(C)=O)n1 | 0.331 nM and 2.5 nM | 24.5 |  | 7.54 | < 0.1 | 0.00301 µM and < 0.0025 µM |  | > 25 | 0.356 nM and 2.5 nM | > 25 |  | > 25 | 0.256 |  | 0.692 nM and < 2.5 nM |  | < 0.1 | 0.135 nM and < 2.5 nM | 0.567 nM and 2.5 nM | > 25 |
